The test system of this test is human umbilical vein endothelial cells (HUVECs). The test can be described thus: Effect of eNOS pathway modulators on LDL-stimulated NO and ONOO− release. Type of test: cell-based. To be noted: for NO production after pre-treatment vs control / ONOO− production after pre-treatment vs control: 30 min pre-treatment, then LDL subclass A, B or I 800 μg/mL; for effect on ratio of [NO]/[ONOO−]: modulators of L-arginine/NO pathway; for [NO]/[ONOO−] ratio with subclass I: pre-treatment, then subclass I 800 μg/mL. As to the method:
Concurrent measurements of NO and ONOO^− were performed with electrochemical nanosensors (diameter: 200-300 nm). The designs of nanosensors are based on chemically modified carbon-fiber technology. Each of those sensors was made by depositing a sensing material on the tip of the carbon fiber. A conductive film of polymeric nickel (II) tetrakis (3-methoxy-4hydroxy-phenyl) porphyrinic was used for the NO sensor and a polymeric film of Mn (III)-paracyclophanyl-porphyrin was used for the ONOO^− sensor. NO and ONOO^− release from its basal level were measured by using amperometry with time (detection limit of 1 nmol/L and resolution time <50 ms). Each sensor was calibrated by using linear calibration curves from 50 nmol/L to 1000 nmol/L and/or standard addition methods before and after measurements with aliquots of NO or ONOO^− standard solutions, respectively.
Endothelial cells were seeded to 24 well plates and cultured in complete medium until confluent monolayer formed. Then the study was carried out as follows:
A control group was incubated in EBM only. After incubation, endothelial cells were stimulated with direct injection of subclasses A, B and I (800 μg/mL), and the release of NO/ONOO^− was measured with nanosensors.

Structures are written as SMILES. Entries after “also recorded” stand apart in the source; their conditions may differ.

Take `C[C@H](O)C(=O)C1=Nc2c(nc(N)[nH]c2=O)NC1` [sepiapterin]: the “NO production after pre-treatment vs control” value is on record as “higher level of NO”, the “ONOO− production after pre-treatment vs control” value (“ONOO− production … vs control” below) is listed as “diminished; also recorded: lower level of ONOO^−”, the “effect on ratio of [NO]/[ONOO−]” value is “favorably increasing the ratio of [NO]/[ONOO^−]” and the “[NO]/[ONOO−] ratio with subclass I” value was “greater than one”.
`c1ccc(Cn2nnc3c(Sc4nc5ccccc5o4)ncnc32)cc1` [VAS2870]: the “ONOO− production … vs control” value is on record as “diminished”. Further, the “decrease of ONOO− concentration” value (VAS2870 10 μmol/L, LDL 800 μg/mL) is on record as 20-27 % of control group.
For the molecule `COC(=O)[C@@H](N)CCCNC(=N)N[N+](=O)[O-]` [L-NAME, L-N^G-arginine methyl ester], the “ONOO− production … vs control” value is “diminished” and the “[NO]/[ONOO−] ratio with subclass I” value is listed as “lower than one”.
For the molecule `N=C(N)NCCC[C@H](N)C(=O)O` [L-arginine], the “NO production after pre-treatment vs control” value was “increase NO production”, the “ONOO− production … vs control” value is “diminished; also recorded: decrease ONOO^− generation”, the “effect on ratio of [NO]/[ONOO−]” value is “favorably increasing the ratio of [NO]/[ONOO^−]” and the “[NO]/[ONOO−] ratio with subclass I” value is “greater than one”.
